Experimental data from article PMC11201061, “Mechanistic Study of Antimicrobial Effectiveness of Cyclic Amphipathic Peptide [R4W4] against Methicillin-Resistant Staphylococcus aureus Clinical Isolates” (Antibiotics, 2024).
In brackets after ≈: the same amount, converted by molar mass. Where a name gives a salt, the structure may show the parent alone. Read-outs that look alike come from different tables or passages of the source. Where a SMILES comes first, the peptide text is derived from it.

How the values were obtained:
[1] = tested on: C. difficile 9689; assay: microbe, parasite or virus in culture; type: cell-based, Clostridioides difficile; conditions: for MBC/MIC: C. difficile ATCC 9689, stool isolate
Protocol: (§1) To determine whether the antibacterial activity of [R4W4] is bacteriostatic or bactericidal against clinical isolates of multidrug-resistant bacterial isolates, MIC and MBC were determined using the microbroth dilution method. Bacteriostatic activity was defined as a ratio of the MBC/MIC greater than four and bactericidal activity as MBC/MIC ratio ≤ 4 [33]. We added aliquots of test samples (256 μg/mL concentration of [R4W4] or vancomycin as a control prepared in TSB) to the first well of microplates. MHB media was added to the remaining wells. Two-fold serial dilutions were performed, starting with the highest drug concentration in well 1, and the dilution process continued. A bacterial aliquot of 1/150 dilution was prepared with a 0.5 McFarland standard solution from an overnight culture of the tested bacteria isolate. Bacteria were added to the microplate and placed into wells with the drug dilutions. The microplates were incubated overnight for 24 h at 37 °C. [R4W4] was synthesized and purified, as reported earlier.

[2] = tested on: MRSA LAC; conditions: for % Reduction in viable bacteria / Lethal rate (LR), log10 reduction: MRSA LAC in MHB; for viable bacteria at 26 h: MRSA LAC; for % reduction in viable bacteria over 1 × MIC, 2 × MIC and 4 × MIC: MRSA in MHB, range over the three concentrations
Protocol: The MRSA Los Angeles County (LAC) USA300 strain was cultured from −80 °C freezer stock and inoculated on an agar plate overnight. Two bacteria colonies were inoculated in MH broth overnight at 37 °C with shaking at 200 rpm. An aliquot was added to normal saline to achieve a 0.5 McFarland Standard suspension and then diluted 1:150 with MHB. The bacteria sample was plated on an agar plate at time zero. The test samples were prepared by adding [R4W4] or vancomycin to bacteria to achieve the final sample concentration of (1 × MIC, 2 × MIC, 4 × MIC) using media without antibacterial agents as positive control.
[…] The samples were diluted to minimize excessive CFU counts. The inoculated plates were incubated at 37 °C overnight. The surviving organisms were determined by counting colonies as CFU/plate. The average duplicate counts were multiplied by the dilution factors to arrive at CFU/mL. The microbial reduction was calculated by converting the count to log10 scale. The Log CFU/mL was plotted against time for different antibacterial concentrations.

[3] = tested on: B. subtilis 21332; assay: microbe, parasite or virus in culture; type: cell-based, Bacillus subtilis; conditions: for MBC/MIC: B. subtilis ATCC 21332
Protocol: as §1

[4] = tested on: MRSA LAC USA300; assay: Surface charge neutralization by zeta potential; type: cell-based, Staphylococcus aureus; conditions: for zeta potential of MRSA after treatment: agent at 16 μg/mL (4 × MIC of [R4W4]), HEPES pH 7.4, 150 mM NaCl, 25 °C, mean of triplicate, untreated −31 ± 0.88 mV
Protocol: Stock cultures of the MRSA strain from −80 °C were inoculated on MHB agar plates at 37 °C overnight. Two isolated colonies were inoculated in 6 mL MHB broth and allowed to grow overnight with shaking at 225 rpm. A 100 µL bacteria aliquot was added to a 5 mL fresh MHB, and the suspension was incubated to grow for 2 h at 37 °C to achieve a final bacteria concentration of ~3 × 10^8 CFU/mL as (A 600 ~0.1). The bacterial suspension was diluted using fresh MHB to 3 × 10^5 CFU/mL. The bacterial suspension was centrifuged at 11,400× g for 10 min and washed twice using 10 mM HEPES buffer, pH 7.4, containing 150 mM NaCl (normal saline).
An amount of 100 µLs of test samples was added to 900 µL of the bacterial aliquots using a positive buffer without test samples.
Meanwhile, the Malvern Zetasizer Nano was set to read samples at 25 °C. The bacterial suspension was dispensed into disposable zeta cells with gold electrodes and allowed to equilibrate for 15 min at 25 °C. The zeta potential value for each sample was calculated from the measured value of electrophoretic mobility using the Smuluchowski equation.

[5] = tested on: MRSA Mec 1; assay: microbe, parasite or virus in culture; type: cell-based, Staphylococcus aureus; conditions: for MBC/MIC: MRSA Mec 1, blood isolate
Protocol: as §1

[6] = tested on: MRSA (vancomycin hetero-non-susceptible) MU3; assay: microbe, parasite or virus in culture; type: cell-based, Staphylococcus aureus
Protocol: as §1

[7] = tested on: MRSA Mec II; assay: microbe, parasite or virus in culture; type: cell-based, Staphylococcus aureus; conditions: for MBC/MIC: MRSA Mec II, blood isolate
Protocol: as §1

[8] = tested on: MRSA Mec V; assay: microbe, parasite or virus in culture; type: cell-based, Staphylococcus aureus; conditions: for MBC/MIC: MRSA Mec V, wound isolate
Protocol: as §1

[9] = tested on: MRSA Mec III; assay: microbe, parasite or virus in culture; type: cell-based, Staphylococcus aureus; conditions: for MBC/MIC: MRSA Mec III, wound isolate
Protocol: as §1

[10] = tested on: MRSA Mec IV; assay: microbe, parasite or virus in culture; type: cell-based, Staphylococcus aureus; conditions: for MBC/MIC: MRSA Mec IV, lung isolate
Protocol: as §1

[11] = tested on: MRSA LAC; assay: microbe, parasite or virus in culture; type: cell-based, Staphylococcus aureus; conditions: for MBC/MIC: MRSA LAC, wound isolate
Protocol: as §1

[12] = tested on: MRSA Clin 6; assay: microbe, parasite or virus in culture; type: cell-based, Staphylococcus aureus; conditions: for MBC/MIC: MRSA Clin 6, lung isolate
Protocol: as §1

[13] = tested on: MRSA Clin 5; assay: microbe, parasite or virus in culture; type: cell-based, Staphylococcus aureus; conditions: for MBC/MIC: MRSA Clin 5, lung isolate
Protocol: as §1

[14] = tested on: MRSA LAC; assay: microbe, parasite or virus in culture; type: cell-based, Staphylococcus aureus; conditions: for MIC: Staphylococcus aureus, MRSA
Protocol: The effects of cations on the antimicrobial activity of [R4W4] were determined against MRSA using vancomycin as a control. The bacteria aliquots were treated with MHB media containing the final concentration of sodium chloride (NaCl) (150, 75, 37.5, and 18.75 mM), calcium chloride (CaCl2) (8, 4, 2, and 1 mM), and ferric chloride (FeCl3) (1, 4, and 8 µM) in 96 well microplates. The MIC of [R4W4] and vancomycin were determined to determine whether there were changes in the MIC values when treated with different salt concentrations.

[15] = Staphylococcus aureus, MRSA, 24 h

N=C(N)NCCC[C@@H]1NC(=O)[C@H](CCCNC(=N)N)NC(=O)[C@H](CCCNC(=N)N)NC(=O)[C@H](Cc2c[nH]c3ccccc23)NC(=O)[C@H](Cc2c[nH]c3ccccc23)NC(=O)[C@H](Cc2c[nH]c3ccccc23)NC(=O)[C@H](Cc2c[nH]c3ccccc23)NC(=O)[C@H](CCCNC(=N)N)NC1=O [[R4W4]] (cyclo(RRRRWWWW))
MBC ([1]; 9689, 24 h): 4 µg/mL (≈ 2.92 µM) | MIC ([1]; 9689, 24 h): 2 µg/mL (≈ 1.46 µM) | MBC/MIC [1]: 2 | % Reduction in viable bacteria ([2]; 1 × MIC, 100 × (1 − 10^−LR)): 99.67% | % Reduction in viable bacteria ([2]; 2 × MIC): 99.78% | Lethal rate (LR), log10 reduction ([2]; 2 × MIC): 2.65 | % Reduction in viable bacteria ([2]; 4 × MIC): 99.87% | Lethal rate (LR), log10 reduction ([2]; 4 × MIC): 2.89 | viable bacteria at 26 h ([2]; 4 × MIC): bacteria remaining viable up to 26 h | % reduction in viable bacteria over 1 × MIC, 2 × MIC and 4 × MIC [2]: 99.67–99.87% | MBC ([3]; 21332, 24 h): 8 µg/mL (≈ 5.84 µM) | MIC ([3]; 21332, 24 h): 4 µg/mL (≈ 2.92 µM) | MBC/MIC [3]: 2 | concentration required to achieve neutralization of negative surface charge ([4]; 2 × MIC): 8 µg/mL | zeta potential of MRSA after treatment [4]: −8.37 mV | MBC/MIC [5]: 2 | MBC ([5]; Mec 1, 24 h): 4 µg/mL (≈ 2.92 µM) | MIC ([5]; Mec 1, 24 h): 2 µg/mL (≈ 1.46 µM) | MBC/MIC ([6]; MRSA MU3, lung isolate): 2 | MBC ([6]; MRSA MU3, lung isolate, averages of triplicates of three different experiments): 32 µg/mL (≈ 23.4 µM) | MIC ([6]; vancomycin hetero-non-susceptible) MU3, 24 h): 16 µg/mL (≈ 11.7 µM) | MBC/MIC [7]: 2 | MBC ([7]; Mec II, 24 h): 8 µg/mL (≈ 5.84 µM) | MIC ([7]; Mec II, 24 h): 4 µg/mL (≈ 2.92 µM) | MBC/MIC [8]: 4 | MBC ([8]; Mec V, 24 h): 64 µg/mL (≈ 46.7 µM) | MIC ([8]; Mec V, 24 h): 16 µg/mL (≈ 11.7 µM) | MBC/MIC [9]: 2 | MBC ([9]; Mec III, 24 h): 8 µg/mL (≈ 5.84 µM) | MIC ([9]; Mec III, 24 h): 4 µg/mL (≈ 2.92 µM) | MBC/MIC [10]: 2 | MBC ([10]; Mec IV, 24 h): 64 µg/mL (≈ 46.7 µM) | MIC ([10]; Mec IV, 24 h): 32 µg/mL (≈ 23.4 µM) | MBC ([11]; LAC, 24 h): 16 µg/mL (≈ 11.7 µM) | MBC/MIC [11]: 4 | MBC ([12]; Clin 6, 24 h): 32 µg/mL (≈ 23.4 µM) | MIC ([12]; Clin 6, 24 h): 32 µg/mL (≈ 23.4 µM) | MBC/MIC [12]: 1 | MBC ([13]; Clin 5, 24 h): 32 µg/mL (≈ 23.4 µM) | MIC ([13]; Clin 5, 24 h): 16 µg/mL (≈ 11.7 µM) | MBC/MIC [13]: 2 | MIC in the presence of sodium chloride ([14]; LAC): 6 to 8 µg/mL | MIC under normal physiological conditions ([14]; MRSA LAC, MHB without added salt): 4 µg/mL | MIC in the presence of ferric chloride ([14]; MRSA LAC, FeCl3 1, 2, 4 and 8 μM): increases proportionally with the concentration of ferric chloride

CN[C@H](CC(C)C)C(=O)N[C@H]1C(=O)N[C@@H](CC(N)=O)C(=O)N[C@H]2C(=O)N[C@H]3C(=O)N[C@H](C(=O)N[C@H](C(=O)O)c4cc(O)cc(O)c4-c4cc3ccc4O)[C@H](O)c3ccc(c(Cl)c3)Oc3cc2cc(c3O[C@@H]2O[C@H](CO)[C@@H](O)[C@H](O)[C@H]2O[C@H]2C[C@](C)(N)[C@H](O)[C@H](C)O2)Oc2ccc(cc2Cl)[C@H]1O [Vancomycin, Vancomycin Hydrochloride, reference compound]
MBC/MIC [1]: 2 | MBC ([1]; Clostridioides difficile, ATCC9689): 1 µg/mL | MIC ([1]; Clostridioides difficile, ATCC9689, 24 h): 0.5 µg/mL | Lethal rate (LR), log10 reduction ([2]; 1 × MIC ([R4W4] 4 µg/mL, vancomycin 1 µg/mL)): 1.02 | % Reduction in viable bacteria ([2]; 1 × MIC, 100 × (1 − 10^−LR)): 90.50% | % Reduction in viable bacteria ([2]; 1 × MIC, 100 × (1 − 10^−LR), listed as vancomycin): > 90% | % Reduction in viable bacteria ([2]; 2 × MIC): 98.98% | Lethal rate (LR), log10 reduction ([2]; 2 × MIC): 1.99 | % Reduction in viable bacteria ([2]; 4 × MIC): 99.58% | Lethal rate (LR), log10 reduction ([2]; 4 × MIC): 2.37 | viable bacteria at 26 h ([2]; 4 × MIC): no viable bacteria were recovered at 26 h | % reduction in viable bacteria over 1 × MIC, 2 × MIC and 4 × MIC [2]: 90.50–99.58% | MBC/MIC [3]: 2 | MBC ([3]; Bacillus subtilis, ATCC21332): 0.5 µg/mL | MIC ([3]; Bacillus subtilis, ATCC21332, 24 h): 0.25 µg/mL | zeta potential of MRSA after treatment [4]: −33.03 mV | MBC/MIC [5]: 2 | MBC ([5]; Staphylococcus aureus, MRSA): 2 µg/mL | MIC [5, 15]: 1 µg/mL | MBC/MIC ([6]; MRSA MU3, lung isolate): 1.5 | MBC ([6]; Staphylococcus aureus, MRSA): 3 µg/mL | MIC [6, 15]: 2 µg/mL | MBC/MIC [7]: 2 | MBC ([7]; Staphylococcus aureus, MRSA): 4 µg/mL | MIC [7, 15]: 2 µg/mL | MBC/MIC [8]: 2 | MBC ([8]; Staphylococcus aureus, MRSA): 4 µg/mL | MIC [8, 15]: 2 µg/mL | MBC/MIC [9]: 2 | MBC ([9]; Staphylococcus aureus, MRSA): 2 µg/mL | MIC [9, 15]: 1 µg/mL | MBC/MIC [10]: 4 | MBC ([10]; Staphylococcus aureus, MRSA): 8 µg/mL | MIC [10, 15]: 2 µg/mL | MBC/MIC [11]: 2 | MBC ([11]; Staphylococcus aureus, MRSA): 2 µg/mL | MIC [11, 15]: 1 µg/mL | MBC/MIC [12]: 4 | MBC ([12]; Staphylococcus aureus, MRSA): 8 µg/mL | MIC [12, 15]: 2 µg/mL | MBC/MIC [13]: 1 | MBC ([13]; Staphylococcus aureus, MRSA): 2 µg/mL | MIC [13, 15]: 2 µg/mL | MIC ([14]; read-out: MIC in the presence of calcium chloride): 0.75 µg/mL | MIC ([14]; read-out: MIC in the presence of ferric chloride): 0.625 to 1.25 µg/mL | MIC ([14]; read-out: MIC in the presence of sodium chloride): 1 to 2 µg/mL | MIC ([14]; read-out: MIC under normal physiological conditions): 1 µg/mL
